In US20080260716A1, “Method and Composition for High Level Disinfection Employing Quaternary Ammonium Compounds” (priority 2004, published 2008):

How the values were obtained:
C. sporogens spores = assay: AOAC sporicidal test, kill time; type: cell-based; conditions: for C. sporogens (no kill): 48 hrs
B. subtilis spores = assay: AOAC sporicidal test, kill time; type: cell-based; conditions: for B. subtilis (no kill): 48 hrs
[1] = Table 3 Prior art, 0.25% QUAT, 25° C.
[2] = Table 6 unnumbered test, 2% QUAT + 0.2% Protease (Savinase 16 L), 25° C. + 1% borax
[3] = test 2.7, 5.0% QUAT, 50° C., listed as quat
[4] = test 2.8, 1.0% QUAT, 80° C., listed as quat
[5] = test 3.4, 0.25% QUAT, 62° C. + ultrasound
[6] = test 4.1, 2% QUAT, 25° C. + 1% borax
[7] = test 4.2, 5% QUAT, 25° C. + 1% borax
[8] = test 4.3, 1% QUAT, 40° C. + 1% borax
[9] = test 4.4, 2% QUAT, 40° C. + 1% borax
[10] = test 4.5, 5% QUAT, 40° C. + 1% borax
[11] = test 4.6, 2% QUAT, 50° C. + 1% borax
[12] = test 4.7, 5% QUAT, 50° C. + 1% borax
[13] = test 5.1, 1% QUAT, 40° C. + ultrasound 10 min each hour
[14] = test 5.2, 2% QUAT, 40° C. + ultrasound 10 min each hour
[15] = test 5.3, 5% QUAT, 40° C. + ultrasound 10 min each hour
[16] = test 5.4, 1% QUAT, 40° C. + ultrasound 10 min each hour
[17] = test 5.5, 2% QUAT + 1% borax, 40° C. + ultrasound 10 min each hour
[18] = test 5.6, 5% QUAT + 1% borax, 40° C. + ultrasound 10 min each hour
[19] = test 5.7, 2% QUAT + 1% borax + Protease, 40° C. + ultrasound 10 min each hour
[20] = test 6.1, 2% QUAT + 0.2% Protease (Savinase 16 L), 25° C.
[21] = test 6.2, 2% QUAT + 0.2% Protease (Savinase 16 L), 40° C.
[22] = test 6.3, 2% QUAT + 0.2% Protease (Savinase 16 L), 40° C. + 1% borax
[23] = test 6.4, 2% QUAT + 0.2% Protease (Savinase 16 L), 50° C.
[24] = test 6.5, 2% QUAT + 0.2% Protease (Savinase 16 L), 50° C. + 1% borax
[25] = test 6.6, 2% QUAT + 0.2% Protease (Savinase 16 L), 40° C. + ultrasound 10 min each hour + 1% borax
[26] = test 6.7, 2% QUAT + 1% borax + Protease, 40° C. + ultrasound 10 min each hour

Substance: benzalkonium chloride [QUAT]
- Kill Time C. sporogens (C. sporogens spores; [1]): >24 h
- Kill Time C. sporogens (C. sporogens spores; [2]): >48 h
- C. sporogens (no kill) (C. sporogens spores; [2]): (no kill) (“No kill” means less than 2 log reduction from the initial population)
- kill time of C. sporogenes (C. sporogens spores; above 1% w/w of quat, 40° C.): less than 2 hours
- Kill Time C. sporogens (C. sporogens spores; test 1.1, 0.025% QUAT, 25° C.): >24 h
- Kill Time C. sporogens (C. sporogens spores; test 1.2, 0.25% QUAT, 25° C.): >24 h
- Kill Time C. sporogens (C. sporogens spores; test 2.1, 5% QUAT, 30° C.): <2 h
- Kill Time C. sporogens (C. sporogens spores; test 2.2, 1.0% QUAT, 40° C.): <2 h
- Kill Time C. sporogens (C. sporogens spores; test 2.3, 2.0% QUAT, 40° C.): <2 h
- Kill Time C. sporogens (C. sporogens spores; test 2.4, 5.0% QUAT, 40° C.): <1 h
- Kill Time C. sporogens (C. sporogens spores; test 2.5, 1.0% QUAT, 50° C.): <2 h
- Kill Time C. sporogens (C. sporogens spores; test 2.6, 2.0% QUAT, 50° C.): <2 h
- Kill Time C. sporogens (C. sporogens spores; test 2.7, 5.0% QUAT, 50° C.): <1 h
- Kill Time C. sporogens (C. sporogens spores; [3]): less than one hour
- Kill Time C. sporogens (C. sporogens spores; test 2.8, 1.0% QUAT, 80° C.): <1 h
- Kill Time C. sporogens (C. sporogens spores; [4]): less than one hour
- Kill Time C. sporogens (C. sporogens spores; test 3.1, 0.25% QUAT, 40° C.): >24 h
- Kill Time C. sporogens (C. sporogens spores; test 3.2, 0.25% QUAT, 50° C.): >24 h
- Kill Time C. sporogens (C. sporogens spores; test 3.3, 0.25% QUAT, 60° C.): >24 h
- Kill Time C. sporogens (C. sporogens spores; [5]): >24 h
- Kill Time C. sporogens (C. sporogens spores; test 3.5, 1.0% QUAT, 25° C.): >48 h
- C. sporogens (no kill) (C. sporogens spores; test 3.5, 1.0% QUAT, 25° C.): (no kill) (“No kill” means less than 2 log reduction from the initial population)
- Kill Time C. sporogens (C. sporogens spores; test 3.6, 2.0% QUAT, 25° C.): >48 h
- C. sporogens (no kill) (C. sporogens spores; test 3.6, 2.0% QUAT, 25° C.): (no kill) (“No kill” means less than 2 log reduction from the initial population)
- Kill Time C. sporogens (C. sporogens spores; test 3.7, 5.0% QUAT, 25° C.): >48 h
- C. sporogens (no kill) (C. sporogens spores; test 3.7, 5.0% QUAT, 25° C.): (no kill) (“No kill” means less than 2 log reduction from the initial population)
- Kill Time C. sporogens (C. sporogens spores; test 3.8, 0.6%, 40° C.): >24 h
- Kill Time C. sporogens (C. sporogens spores; test 3.9, 0.6% QUAT, 50° C.): <16 h
- Kill Time C. sporogens (C. sporogens spores; [6]): >48 h
- C. sporogens (no kill) (C. sporogens spores; [6]): (no kill) (“No kill” means less than 2 log reduction from the initial population)
- Kill Time C. sporogens (C. sporogens spores; [7]): >48 h
- C. sporogens (no kill) (C. sporogens spores; [7]): (no kill) (“No kill” means less than 2 log reduction from the initial population)
- Kill Time C. sporogens (C. sporogens spores; [8]): <1 h
- Kill Time C. sporogens (C. sporogens spores; [9]): <1 h
- Kill Time C. sporogens (C. sporogens spores; [10]): <1 h
- Kill Time C. sporogens (C. sporogens spores; [11]): <1 h
- Kill Time C. sporogens (C. sporogens spores; [12]): <1 h
- Kill Time C. sporogens (C. sporogens spores; [13]): <2 h
- Kill Time C. sporogens (C. sporogens spores; [14]): <1 h
- Kill Time C. sporogens (C. sporogens spores; [15]): <1 h
- Kill Time C. sporogens (C. sporogens spores; [16]): <1 h
- Kill Time C. sporogens (C. sporogens spores; [17]): <1 h
- Kill Time C. sporogens (C. sporogens spores; [18]): <1 h
- Kill Time C. sporogens (C. sporogens spores; [19]): <1 h
- Kill Time C. sporogens (C. sporogens spores; [20]): >48 h
- C. sporogens (no kill) (C. sporogens spores; [20]): (no kill) (“No kill” means less than 2 log reduction from the initial population)
- Kill Time C. sporogens (C. sporogens spores; [21]): <1 h
- Kill Time C. sporogens (C. sporogens spores; [22]): <1 h
- Kill Time C. sporogens (C. sporogens spores; [23]): <1 h
- Kill Time C. sporogens (C. sporogens spores; [24]): <1 h
- Kill Time C. sporogens (C. sporogens spores; [25]): <1 h
- Kill Time C. sporogens (C. sporogens spores; [26]): <1 h
- Kill Time B. subtilis (B. subtilis spores; [1]): >24 h
- Kill Time B. subtilis (B. subtilis spores; [2]): >48 h
- B. subtilis (no kill) (B. subtilis spores; [2]): (no kill) (“No kill” means less than 2 log reduction from the initial population)
- kill time of B. subtilis (B. subtilis spores; above 1% w/w of quat, 40° C.): less than 2 hours
- Kill Time B. subtilis (B. subtilis spores; test 1.1, 0.025% QUAT, 25° C.): >24 h
- Kill Time B. subtilis (B. subtilis spores; test 1.2, 0.25% QUAT, 25° C.): >24 h
- Kill Time B. subtilis (B. subtilis spores; test 2.1, 5% QUAT, 30° C.): <2 h
- Kill Time B. subtilis (B. subtilis spores; test 2.2, 1.0% QUAT, 40° C.): <2 h
- Kill Time B. subtilis (B. subtilis spores; test 2.3, 2.0% QUAT, 40° C.): <2 h
- Kill Time B. subtilis (B. subtilis spores; test 2.4, 5.0% QUAT, 40° C.): <1 h
- Kill Time B. subtilis (B. subtilis spores; test 2.5, 1.0% QUAT, 50° C.): <1 h
- Kill Time B. subtilis (B. subtilis spores; test 2.6, 2.0% QUAT, 50° C.): <1 h
- Kill Time B. subtilis (B. subtilis spores; test 2.7, 5.0% QUAT, 50° C.): <1 h
- Kill Time B. subtilis (B. subtilis spores; [3]): less than one hour
- Kill Time B. subtilis (B. subtilis spores; test 2.8, 1.0% QUAT, 80° C.): <1 h
- Kill Time B. subtilis (B. subtilis spores; [4]): less than one hour
- Kill Time B. subtilis (B. subtilis spores; test 3.1, 0.25% QUAT, 40° C.): >24 h
- Kill Time B. subtilis (B. subtilis spores; test 3.2, 0.25% QUAT, 50° C.): >24 h
- Kill Time B. subtilis (B. subtilis spores; test 3.3, 0.25% QUAT, 60° C.): >24 h
- Kill Time B. subtilis (B. subtilis spores; [5]): >24 h
- Kill Time B. subtilis (B. subtilis spores; test 3.5, 1.0% QUAT, 25° C.): >48 h
- B. subtilis (no kill) (B. subtilis spores; test 3.5, 1.0% QUAT, 25° C.): (no kill) (“No kill” means less than 2 log reduction from the initial population)
- Kill Time B. subtilis (B. subtilis spores; test 3.6, 2.0% QUAT, 25° C.): >48 h
- B. subtilis (no kill) (B. subtilis spores; test 3.6, 2.0% QUAT, 25° C.): (no kill) (“No kill” means less than 2 log reduction from the initial population)
- Kill Time B. subtilis (B. subtilis spores; test 3.7, 5.0% QUAT, 25° C.): >48 h
- B. subtilis (no kill) (B. subtilis spores; test 3.7, 5.0% QUAT, 25° C.): (no kill) (“No kill” means less than 2 log reduction from the initial population)
- Kill Time B. subtilis (B. subtilis spores; test 3.8, 0.6%, 40° C.): >24 h
- Kill Time B. subtilis (B. subtilis spores; test 3.9, 0.6% QUAT, 50° C.): <16 h
- Kill Time B. subtilis (B. subtilis spores; [6]): >48 h
- B. subtilis (no kill) (B. subtilis spores; [6]): (no kill) (“No kill” means less than 2 log reduction from the initial population)
- Kill Time B. subtilis (B. subtilis spores; [7]): >48 h
- B. subtilis (no kill) (B. subtilis spores; [7]): (no kill) (“No kill” means less than 2 log reduction from the initial population)
- Kill Time B. subtilis (B. subtilis spores; [8]): <1 h
- Kill Time B. subtilis (B. subtilis spores; [9]): <1 h
- Kill Time B. subtilis (B. subtilis spores; [10]): <1 h
- Kill Time B. subtilis (B. subtilis spores; [11]): <1 h
- Kill Time B. subtilis (B. subtilis spores; [12]): <1 h
- Kill Time B. subtilis (B. subtilis spores; [13]): <2 h
- Kill Time B. subtilis (B. subtilis spores; [14]): <1 h
- Kill Time B. subtilis (B. subtilis spores; [15]): <1 h
- Kill Time B. subtilis (B. subtilis spores; [16]): <1 h
- Kill Time B. subtilis (B. subtilis spores; [17]): <1 h
- Kill Time B. subtilis (B. subtilis spores; [18]): <1 h
- Kill Time B. subtilis (B. subtilis spores; [19]): <1 h
- Kill Time B. subtilis (B. subtilis spores; [20]): >48 h
- B. subtilis (no kill) (B. subtilis spores; [20]): (no kill) (“No kill” means less than 2 log reduction from the initial population)
- Kill Time B. subtilis (B. subtilis spores; [21]): <2 h
- Kill Time B. subtilis (B. subtilis spores; [22]): <1 h
- Kill Time B. subtilis (B. subtilis spores; [23]): <1 h
- Kill Time B. subtilis (B. subtilis spores; [24]): <1 h
- Kill Time B. subtilis (B. subtilis spores; [25]): <1 h
- Kill Time B. subtilis (B. subtilis spores; [26]): <1 h
